According to US20150031674A1, “SERINE/THREONINE KINASE INHIBITORS” (GENENTECH, INC., priority 2013, published 2015):

These compounds were tested against human recombinant PAK1-KD protein (Homo sapiens, UniProt Q13153) (assay: PAK1-KD (Kinase Domain) IC50 Zlyte Assay (FRET peptide substrate phosphorylation)). Conditions: Z'-LYTE, Biological Example 1.
Chain of human recombinant PAK1-KD protein (Q13153 270-521 limits assumed): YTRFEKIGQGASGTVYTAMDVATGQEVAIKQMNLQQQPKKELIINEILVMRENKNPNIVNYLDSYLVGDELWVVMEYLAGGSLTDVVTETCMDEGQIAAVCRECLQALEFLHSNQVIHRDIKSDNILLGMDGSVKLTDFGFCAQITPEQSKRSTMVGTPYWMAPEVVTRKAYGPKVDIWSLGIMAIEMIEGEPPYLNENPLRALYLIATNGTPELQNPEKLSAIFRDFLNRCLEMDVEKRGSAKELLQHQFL
Text: PAK1-KD (Kinase Domain) IC50 Zlyte Assay Protocol
Activity of human recombinant PAK1-KD protein may be assessed in vitro by assay of the phosphorylation of a FRET peptide substrate. Catalytically active human recombinant PAK1-KD protein is obtained by purification from Tini cells infected with a human PAK1-KD recombinant baculovirus expression vector.
The activity/inhibition of PAK1-KD was estimated by measuring the phosphorylation of a FRET peptide substrate (Ser/Thr19) labeled with Coumarin and Fluorescein using Z′-LYTE™ assay (Invitrogen). The peptide substrate is a consensus sequence ([sequence]) based on various PAK substrates reported in the scientific literature. […] Incubations were carried out at 22° C. in black polypropylene 384-well plates (Corning Costar).

Compound	Ki [nM]
CNc1ncc2cc(-c3ccc(-c4csc(C)n4)cc3Cl)c(=O)n(CCCN)c2n1 [Example I-140, 8-(3-aminopropyl)-6-[2-chloro-4-(2-methylthiazol-4-yl)phenyl]-2-(methylamino)pyrido[2,3-d]pyrimidin-7-one]	8.06
CNc1ncc2cc(-c3ccc(-c4cncc(C)n4)cc3Cl)c(=O)n(CC(=O)N[C@H]3CCNC3)c2n1 [Example I-142, 2-[6-[2-chloro-4-(6-methylpyrazin-2-yl)phenyl]-2-(methylamino)-7-oxo-pyrido[2,3-d]pyrimidin-8-yl]-N-[(3S)-pyrrolidin-3-yl]acetamide]	14
CNc1ncc2cc(-c3ccc(-c4cncc(C)n4)cc3Cl)c(=O)n(CC(=O)N3CC[C@H](N)C3)c2n1 [Example I-143, 8-[2-[(3S)-3-Aminopyrrolidin-1-yl]-2-oxo-ethyl]-6-[2-chloro-4-(6-methylpyrazin-2-yl)phenyl]-2-(methylamino)pyrido[2,3-d]pyrimidin-7-one]	12.5
CNc1ncc2cc(-c3ccc(-c4cncc(C)n4)cc3Cl)c(=O)n(C[C@H]3OC[C@H](N)CO3)c2n1 [Example I-145, 8-[(5-Amino-1,3-dioxan-2-yl)methyl]-6-[2-chloro-4-(6-methylpyrazin-2-yl)phenyl]-2-(methylamino)pyrido[2,3-d]pyrimidin-7-one]	8.54
Cc1cncc(-c2ccc(-c3cc4cnc(NC5COC5)nc4n(C[C@H]4CNCCO4)c3=O)c(Cl)c2)n1 [Example I-146, 6-[2-Chloro-4-(6-methylpyrazin-2-yl)phenyl]-8-[[(2R)-morpholin-2-yl]methyl]-2-(oxetan-3-ylamino)pyrido[2,3-d]pyrimidin-7-one]	10.7
CNc1ncc2cc(-c3ccc(-c4cccc(C)n4)cc3C)c(=O)n(C[C@H]3CNCCO3)c2n1 [Example I-148, 2-(Methylamino)-6-[2-methyl-4-(6-methyl-2-pyridyl)phenyl]-8-[[(2R)-morpholin-2-yl]methyl]pyrido[2,3-d]pyrimidin-7-one]	7.3
Cc1cncc(-c2ccc(-c3cc4cnc(NC5COC5)nc4n(C[C@@H]4CNCCO4)c3=O)c(Cl)c2)n1 [Example I-149, 6-[2-Chloro-4-(6-methylpyrazin-2-yl)phenyl]-8-[[(2S)-morpholin-2-yl]methyl]-2-(oxetan-3-ylamino)pyrido[2,3-d]pyrimidin-7-one]	9
CNc1ncc2cc(-c3ccc(-c4cncc(C)n4)cc3Cl)c(=O)n(CC(=O)N[C@@H]3CCNC3)c2n1 [Example I-151, 2-[6-[2-Chloro-4-(6-methylpyrazin-2-yl)phenyl]-2-(methylamino)-7-oxo-pyrido[2,3-d]pyrimidin-8-yl]-N-[(3R)-pyrrolidin-3-yl]acetamide]	12.4
CNc1ncc2cc(-c3ccc(-c4cncc(C)n4)cc3Cl)c(=O)n(CC(=O)N3CC[C@@H](N)C3)c2n1 [Example I-152, 8-[2-[(3R)-3-Aminopyrrolidin-1-yl]-2-oxo-ethyl]-6-[2-chloro-4-(6-methylpyrazin-2-yl)phenyl]-2-(methylamino)pyrido[2,3-d]pyrimidin-7-one]	21.1
CNc1ncc2cc(-c3ccc(-c4cncc(C)n4)cc3Cl)c(=O)n(CC(=O)N3CCC[C@@H]3CN)c2n1 [Example I-153, 8-[2-[(2R)-2-(Aminomethyl)pyrrolidin-1-yl]-2-oxo-ethyl]-6-[2-chloro-4-(6-methylpyrazin-2-yl)phenyl]-2-(methylamino)pyrido[2,3-d]pyrimidin-7-one]	8.5
CNc1ncc2cc(-c3ccc(-c4cncc(C)n4)cc3Cl)c(=O)n(CC(=O)N3CCC[C@H]3CN)c2n1 [Example I-154, 8-[2-[(2S)-2-(Aminomethyl)pyrrolidin-1-yl]-2-oxo-ethyl]-6-[2-chloro-4-(6-methylpyrazin-2-yl)phenyl]-2-(methylamino)pyrido[2,3-d]pyrimidin-7-one]	39.4
CNc1ncc2cc(-c3ccc(-c4cncc(C)n4)cc3Cl)c(=O)n(CC(=O)N3C[C@@H]4C[C@H]3CN4)c2n1 [Example I-155, 6-[2-Chloro-4-(6-methylpyrazin-2-yl)phenyl]-8-[2-[(1S,4S)-2 5-diazabicyclo[2.2.1]heptan-2-yl]-2-oxo-ethyl]-2-(methylamino)pyrido[2,3-d]pyrimidin-7-one]	39.2
CNc1ncc2cc(-c3ccc(-c4cncc(C)n4)cc3Cl)c(=O)n(CC(=O)NCCN)c2n1 [Example I-156, N-(2-aminoethyl)-2-[6-[2-chloro-4-(6-methylpyrazin-2-yl)phenyl]-2-(methylamino)-7-oxo-pyrido[2,3-d]pyrimidin-8-yl]acetamide]	14.4
CNc1ncc2cc(-c3ccc(-c4cncc(C)n4)cc3Cl)c(=O)n(CC(=O)N3CCC(O)C3)c2n1 (stereo not shown) [Example I-157, 6-[2-chloro-4-(6-methylpyrazin-2-yl)phenyl]-8-[2-(3-hydroxypyrrolidin-1-yl)-2-oxo-ethyl]-2-(methylamino)pyrido[2,3-d]pyrimidin-7-one]	44.9
CNc1ncc2cc(-c3ccc(-c4cncc(C)n4)cc3Cl)c(=O)n(CCN3CCOCC3)c2n1 [Example I-158, 6-[2-chloro-4-(6-methylpyrazin-2-yl)phenyl]-2-(methylamino)-8-(2-morpholinoethyl)pyrido[2,3-d]pyrimidin-7-one]	78.2
CNc1ncc2cc(-c3ccc(-c4cccc(C)n4)cc3Cl)c(=O)n(CS(=O)(=O)N3CCNCC3)c2n1 [Example I-162, 6-[2-chloro-4-(6-methyl-2-pyridyl)phenyl]-2-(methylamino)-8-(piperazin-1-ylsulfonylmethyl)pyrido[2,3-d]pyrimidin-7-one]	14.7
Cc1cncc(-c2ccc(-c3cc4cnc(N)nc4n(C[C@H]4OC[C@H](N)CO4)c3=O)c(Cl)c2)n1 [Example I-163, 2-amino-8-[(5-amino-1,3-dioxan-2-yl)methyl]-6-[2-chloro-4-(6-methylpyrazin-2-yl)phenyl]pyrido[2,3-d]pyrimidin-7-one]	26.9
Cc1cncc(-c2ccc(-c3cc4cnc(NC5COC5)nc4n(C[C@H]4OC[C@H](N)CO4)c3=O)c(Cl)c2)n1 [Example I-164, 8-[(5-amino-1,3-dioxan-2-yl)methyl]-6-[2-chloro-4-(6-methylpyrazin-2-yl)phenyl]-2-(oxetan-3-ylamino)pyrido[2,3-d]pyrimidin-7-one]	9.9
CNc1ncc2cc(-c3ccc(-c4cccc(C)n4)cc3Cl)c(=O)n(CC3(C#N)CCNCC3)c2n1 [Example I-169, 4-[[6-[2-chloro-4-(6-methyl-2-pyridyl)phenyl]-2-(methylamino)-7-oxo-pyrido[2,3-d]pyrimidin-8-yl]methyl]piperidine-4-carbonitrile]	12
CNc1ncc2cc(-c3ccc(-c4cncc(C)n4)cc3Cl)c(=O)n(CC[C@H]3OC[C@@H](N)CO3)c2n1 [Example I-172, 8-[2-(5-amino-1,3-dioxan-2-yl)ethyl]-6-[2-chloro-4-(6-methylpyrazin-2-yl)phenyl]-2-(methylamino)pyrido[2,3-d]pyrimidin-7-one]	11.9
CNc1ncc2cc(-c3ccc(-c4cccc(C)n4)cc3Cl)c(=O)n(C[C@@H]3CNCCO3)c2n1 [Example I-173, 6-[2-chloro-4-(6-methyl-2-pyridyl)phenyl]-2-(methylamino)-8-[[(2S)-morpholin-2-yl]methyl]pyrido[2,3-d]pyrimidin-7-one]	12.9

Now from value to compound:

Ki [nM]	Compound
4	CNc1ncc2cc(-c3ccc(-c4cccc(C)n4)cc3Cl)c(=O)n(CCS(=O)(=O)N3CCNCC3)c2n1 [Example I-141, 6-[2-chloro-4-(6-methyl-2-pyridyl)phenyl]-2-(methylamino)-8-(2-piperazin-1-ylsulfonylethyl)pyrido[2,3-d]pyrimidin-7-one]
10.8	Cc1cccc(-c2ccc(-c3cc4cnc(NC5COC5)nc4n(C[C@H]4CNCCO4)c3=O)c(Cl)c2)n1 [Example I-159, 6-[2-Chloro-4-(6-methyl-2-pyridyl)phenyl]-8-[[(2R)-morpholin-2-yl]methyl]-2-(oxetan-3-ylamino)pyrido[2,3-d]pyrimidin-7-one]
10.3	CCNc1ncc2cc(-c3ccc(-c4cccc(C)n4)cc3Cl)c(=O)n(CCS(=O)(=O)C3CNC3)c2n1 [Example I-160, 8-[2-(azetidin-3-ylsulfonyl)ethyl]-6-[2-chloro-4-(6-methyl-2-pyridyl)phenyl]-2-(ethylamino)pyrido[2,3-d]pyrimidin-7-one]
22	Cc1cccc(-c2ccc(-c3cc4cnc(NC5COC5)nc4n(CCCS(N)(=O)=O)c3=O)c(C)c2)n1 [Example I-161, 3-[6-[2-methyl-4-(6-methyl-2-pyridyl)phenyl]-2-(oxetan-3-ylamino)-7-oxo-pyrido[2,3-d]pyrimidin-8-yl]propane-1-sulfonamide]
16.7	CNc1ncc2cc(-c3ccc(-c4cccc(C)n4)cc3C)c(=O)n(CCN3CCOCC3)c2n1 [Example I-165, 2-(Methylamino)-6-[2-methyl-4-(6-methyl-2-pyridyl)phenyl]-8-(2-morpholinoethyl)pyrido[2,3-d]pyrimidin-7-one]
17	Cc1cccc(-c2ccc(-c3cc4cnc(NC5COC5)nc4n(CCS(N)(=O)=O)c3=O)c(C)c2)n1 [Example I-166]
15.7	Cc1cccc(-c2ccc(-c3cc4cnc(NC5COC5)nc4n(CCCO)c3=O)c(C)c2)n1 [Example I-168, 8-(3-hydroxypropyl)-6-[2-methyl-4-(6-methyl-2-pyridyl)phenyl]-2-(oxetan-3-ylamino)pyrido[2,3-d]pyrimidin-7-one]
5.3	CNc1ncc2cc(-c3ccc(-c4cccc(C)n4)cc3C)c(=O)n(C[C@H]3OC[C@H](N)CO3)c2n1 [Example I-170, 8-[(5-Amino-1,3-dioxan-2-yl)methyl]-2-(methylamino)-6-[2-methyl-4-(6-methyl-2-pyridyl)phenyl]pyrido[2,3-d]pyrimidin-7-one]
5	CNc1ncc2cc(-c3ccc(-c4cccc(C)n4)cc3C)c(=O)n(C[C@@H]3CNCCO3)c2n1 [Example I-171, 6-(2-methyl-4-(6-methylpyridin-2-yl)phenyl)-2-(methylamino)-8-[[(2S)-morpholin-2-yl]methyl]pyrido[2,3-d]pyrimidin-7(8H)-one]
7.2	CNc1ncc2cc(-c3ccc(-c4cccc(C)n4)cc3C)c(=O)n(CCS(=O)(=O)CCN)c2n1 [Example I-174, 8-[2-(2-aminoethylsulfonyl)ethyl]-2-(methylamino)-6-[2-methyl-4-(6-methyl-2-pyridyl)phenyl]pyrido[2,3-d]pyrimidin-7-one]
